Assay results published in publication PMC11522800 (Frontiers in Immunology, 2024).
Like-named read-outs stand apart in the source and are kept apart here.

How the values were obtained:
[1] = Protocol: Cohort 1 received 50 mg of each dipeptide in 300 mL water. Cohort 2 received 100 mL Peptamen first, then 50 mg of each dipeptide in 150 mL water, followed by another 50 mL water. All drinks were taken within a minute. Cohort 3 received 100 mL Peptamen first, then a reduced dose of 5 mg of each dipeptide in 150 mL water, followed by another 50 mL water. All drinks were taken within a minute. Blood samples were collected after 15 min, 30 min, 45 min, 1 h, 2 h, 3 h, 4 h, 6 h, 8 h, 10 h, 14 h, 48 h and 72 h after dosing. Urine was collected and pooled at 0-4 h, 4-6 h, and 6-10 h, and was collected as spot urine at 48 h and 72 h after dosing.
Plasma samples were thawed on ice, mixed, and 100 µL of each sample was transferred to a 1.5 mL LoBind reaction tube. Plasma samples were precipitated after adding 200 µL of acetonitrile/methanol (10:1), and incubated on ice for 15 min. Samples were centrifuged at 16,000 g for 15 min at 4 °C. 100 µL supernatant was dried under nitrogen at 40 °C. Samples were reconstituted in 100 µL 0.1% formic acid and 5 µL was applied to the LC-MS/MS instrument.
Labelled XP dipeptides and single amino acids (P*, L*, F*) in plasma samples were quantified by LC-MS/MS using Nexera LC40 HPLC system (Shimadzu, Duisburg, Germany) coupled to an API 6500+ ™ tandem mass spectrometer (AB Sciex, Darmstadt, Germany). For chromatographic separation an ACQUITY UPLC HSS PFP Column (100 Å, 1.8 µm, 2.1 mm X 150 mm; Waters, Eschborn, Germany) protected by a SecurityGuard C18 column (4x2 mm; Phenomenex, Aschaffenburg, Germany) was used. Chromatographic separation was performed at an oven temperature of 40°C and the solvent flow rate was set to 400 µL/min. Elution was achieved by varying composition of solvent A (90% acetonitrile + methanol (6 + 1), 0.1% formic acid in H2O) and solvent B (0.1% formic acid in H2O) using following LC conditions: 0-1.4 min 0% solvent A; 1.4-10.4 min 0-50% solvent A; 10.5-12.9 min 80% solvent A; 13-15 min 0% solvent A. To decrease the introduction of debris into the MS, a valve was directed to waste at 0.1-1 min and 9.5-14.9 min.
MS detection of labelled amino acids and XP dipeptides was performed in positive mode with curtain gas set to 40, gas 1 of 50, gas 2 of 70, temperature of 500°C and an IS of 3500. Detection was achieved using MS parameters and mass transitions listed in Supplementary Table 3 .
LC-MS/MS-generated chromatograms were analyzed using Analyst 1.7.2 (Sciex, Darmstadt, Germany). The pharmacokinetics parameter AUC was calculated using GraphPad Prism version 8.0 (GraphPad Prism Software Inc., La Jolla, CA, USA). Partial AUCs were calculated manually using the trapezoidal rule.
Statistical analyses were performed using SPSS Statistics Version 28 (SPSS Inc., IBM, Chicago, IL, USA). To compare the effects between cohorts in the dipeptide resorption study the one-tailed Mann-Whitney-Test was applied. To compare the effects between enzyme supplementation and controls during the proof-of-concept study the one tailed Wilcoxon matched-pairs signed rank test was applied.

[2] = plasma of healthy volunteers after oral administration of SI-labelled XP dipeptides (with water or Peptamen); details: human (healthy volunteers), up to 72 h
[3] = test system: AMYNOPEP (dipeptidyl peptidase and aminopeptidase, 1:10 enzyme ratio); test: Tris buffer at pH 7.0 using an enzyme mixture consisting of 0.86 mg/L dipeptidyl peptidase and 8.6 mg/L aminopeptidase; details: 37°C, up to 60 minutes
[4] = test system: gastric, pancreatic, and intestinal peptidases; test: human gastric, pancreatic, and intestinal peptidases; details: cited from earlier work
[5] = test system: AMYNOPEP (dipeptidyl peptidase : aminopeptidase, 1:1 ratio); test: in vitro with AMYNOPEP at an enzyme ratio of 1:1

With `N[C@@H](Cc1ccccc1)C(=O)O` [F*, phenylalanine] the “reduction in plasma AUC of labelled amino acid on dose reduction from 50 mg to 5 mg of each XP” value (“reduction in plasma AUC” for short) ([1]; oral XP dipeptides taken with 100 mL Peptamen, n=3 healthy volunteers per cohort, LC-MS/MS) was 9.5 fold, the “SI-labelled amino acid detection in plasma after oral XP dipeptides” value ([1]; oral, 50 mg each of F*P*, LP*, L*P* in water, n=3 healthy volunteers, HPLC-MS/MS) was “detectable” and the “decrease in plasma AUC of labelled amino acid with Peptamen relative to water” value ([1]; oral, 50 mg of each XP dipeptide with 100 mL Peptamen vs water, n=3 healthy volunteers per cohort, LC-MS/MS) was 2.1 fold.

In the case of F*P*, the cleaved bond [2] is reported as “F*-P*”.

In the case of `O=C(O)[C@@H]1CCCN1` [P*, proline], the “reduction in plasma AUC” value ([1]; human, in vivo, po) is reported as 11.5 fold.

In the case of L*P*, the cleaved bond [2] is reported as “L*-P*”.

In the case of LQLQPFPQPQLPYPQPQLPYPQPQLPYPQPQPF, the cleaved bond [3] is given as “L-Q, 5 min and P-Q and Q-L and P-Y and P-F, within 30 minutes and Q-L, 5 min and P-F, 5 min and P-Q, 5 min”, the not cleaved [4] is given as “thought to be stable to proteolytic digestion” and the cleaved bond [5] is given as “P-F”.

For `CC(C)C[C@H](N)C(=O)O` [L*, leucine], the “reduction in plasma AUC” value ([1]; human, in vivo, po) was 13.2 fold.
